Columns and labels:
Assay type in all cases: in vivo
[1] = tested on: ICR mice; experiment: Horizontal-wire test; conditions: Table 2, mice, 60 s
Protocol: (§1) ICR mice of male sex, weighing 15.6-17.8 g were used, provided by Experimental Animal Centre of HKUST, housed in groups, given food and water ad libitum and maintained on a 12 hour light: 12 hour dark cycle. All of the experimental groups had 12 animals per group.
(§2) For each experimental animal, administered orally 0.2 ml (pH 7.2) of respective solvent at concentrations as stated above for each group (or double-distilled water for normal control group) one hour before testing.
Mice are lifted by the tail and allowed to grasp a horizontally strung wire (1 mm diameter, 20 cm long and placed 20 cm above the table) with their forepaws and released (Bonetti E. P. et al., Psychopharmacology (Berl). 1982; 78(1): 8-18; PMID: 6292984). For each experimental animal, the number of falling onto the table in 60 seconds was determined.
There is no significant difference between same dosage l-THP and dl-THP groups.

[2] = tested on: ICR mice; experiment: Hole-board test; conditions: 300 s
Protocol: as §1, §2
The hole-board apparatus is a 0.5 cm thick walled wood arena of 60×60×30 cm, with four 5 cm equidistant 4 cm diameter holes spaced on the floor. The mice are placed on the centre of the arena and the number of head-dip on the hole and the number of rearing are counted during a 300 second test period (File S. E. et al., “The effects of triazolobenzo-diazepines in two animal tests of anxiety and in the holeboard.”, Br J Pharmacol. 1985 November; 86(3): 729-35; PMID: 2866006). After each trial, the floor of the apparatus was wiped and dried thoroughly with tissue to remove traces of the previous path.

[3] = tested on: ICR mice; experiment: Elevated plus-maze test; conditions: mice; for Open arm entry % / Open arm entry No. / Total no. of arm entries: 300 s; for Open arm Time spent / Open arm time spent %: 300 s test
Protocol: as §1, §2
The elevated plus-maze is made of 0.5 cm thick wood as a horizontal cross consisting of two open arms (25×5 cm) and two opposite arms (25×5 cm) enclosed by 10 cm high walls. The arms extend from a central platform having dimensions of 5×5 cm. The plus-maze is elevated to a height of 40 cm from the floor. The maze is put inside a box with dimensions of 30×30×50 cm. The mice are placed on the central platform of the maze facing a closed arm. The number of arm entries and the time spent in the open and closed arm are counted for 300 seconds (Pellow S. et al., “Anxiolytic and anxiogenic drug effects on exploratory activity in an elevated plus-maze: a novel test of anxiety in the rat”, Pharmacol Biochem Behav. 1986 March; 24(3): 525-9; PMID: 2871560). Arm entry was defined as one half body entered into the arm.

Work on `COc1cc2c(cc1OC)C1Cc3ccc(OC)c(OC)c3CN1CC2` (racemic) [dl-THP, 5,8,18,13a-tetrahydro-2,3,9,10-tetramethoxy-6H-dibenzo [a,q] quinolizine, reference compound] yielded a Number of falling ([1]; oral 0.5 mg/kg) of 0.30 ± 0.48, a Number of falling ([1]; oral 1.0 mg/kg) of 0.50 ± 0.67 and a Number of falling ([1]; oral 5.0 mg/kg) of 0.40 ± 0.49. For the same molecule, the Number of falling ([1]; oral 10 mg/kg) was 0.80 ± 0.64, the Number of falling ([1]; oral 30 mg/kg) was 21.60 ± 8.72 and the “Head-dip No.” value ([2]; oral 0.1 mg/kg) was 13.42 ± 12.06. For the same molecule, the “Rearing No.” value ([2]; oral 0.1 mg/kg) was 22.17 ± 12.76, the “Total No. (head-dip and rearing)” value ([2]; oral 0.1 mg/kg) was 35.58 ± 16.47 and the “Head-dip No.” value ([2]; oral 0.5 mg/kg) was 17.67 ± 11.14. For the same molecule, the “Rearing No.” value ([2]; oral 0.5 mg/kg) was 26.50 ± 10.06, the “Total No. (head-dip and rearing)” value ([2]; oral 0.5 mg/kg) was 44.17 ± 13.53 and the “Head-dip No.” value ([2]; oral 1.0 mg/kg) was 13.20 ± 10.64. For the same molecule, the “Rearing No.” value ([2]; oral 1.0 mg/kg) was 20.40 ± 15.74, the “Total No. (head-dip and rearing)” value ([2]; oral 1.0 mg/kg) was 33.60 ± 20.37 and the “Head-dip No.” value ([2]; oral 5.0 mg/kg) was 11.08 ± 6.34. For the same molecule, the “Rearing No.” value ([2]; oral 5.0 mg/kg) was 26.39 ± 12.28, the “Total No. (head-dip and rearing)” value ([2]; oral 5.0 mg/kg) was 37.46 ± 15.95 and the “most medicinal dosage (time spent and percentage of open arm entry)” value ([3]; oral) was 5 mg/kg. The “Open arm entry %” value ([3]; oral 0.1 mg/kg) was 30.58 ± 5.83 %, the “Open arm entry No.” value ([3]; oral 0.1 mg/kg) was 8.77 ± 1.88 and the “Total no. of arm entries” value ([3]; oral 0.1 mg/kg) was 28.92 ± 4.73. For the same molecule, the “Open arm entry %” value ([3]; oral 0.5 mg/kg) was 43.13 ± 4.17%, the “Open arm entry No.” value ([3]; oral 0.5 mg/kg) was 13.15 ± 3.33 and the “Total no. of arm entries” value ([3]; oral 0.5 mg/kg) was 30.25 ± 5.55. The “Open arm Time spent” value ([3]; oral 0.5 mg/kg) was 80.42 ± 15.23, the “Open arm time spent %” value ([3]; oral 0.5 mg/kg) was 29.25 ± 5.10% and the “Open arm entry %” value ([3]; oral 1.0 mg/kg) was 51.17 ± 5.48 %. For the same molecule, the “Open arm entry No.” value ([3]; oral 1.0 mg/kg) was 16.00 ± 3.13, the “Total no. of arm entries” value ([3]; oral 1.0 mg/kg) was 31.20 ± 4.16 and the “Open arm Time spent” value ([3]; oral 1.0 mg/kg) was 88.40 ± 17.37. The “Open arm time spent %” value ([3]; oral 1.0 mg/kg) was 29.95 ± 5.31%, the “hypnotic effect / inhibition of the nervous system” value ([3]; oral 5 mg/kg) was “does not induce a hypnotic effect or inhibit the nervous system” and the “Open arm entry %” value ([3]; oral 5.0 mg/kg) was 50.21 ± 4.04 %. For the same molecule, the “Open arm entry No.” value ([3]; oral 5.0 mg/kg) was 15.23 ± 3.19, the “Total no. of arm entries” value ([3]; oral 5.0 mg/kg) was 30.15 ± 4.83 and the “Open arm Time spent” value ([3]; oral 5.0 mg/kg) was 95.00 ± 23.56. The “Open arm time spent %” value ([3]; oral 5.0 mg/kg) was 32.79 ± 8.60 %.
